Experimental data published in patent publication US20250129082A1, “N-1 Triazole Substituted Imidazoquinolines, Conjugates Thereof, and Methods” (Solventumn Intellectual Properties Company, priority 2021, published 2025).

What was measured:
Type in all cases: cell-based
human TLR8 = target: T1, human TLR8 (Homo sapiens, UniProt Q9NR97); assay: TLR activation and specificity, HEK-BLUE-hTLR8 SEAP reporter cells; settings: 16-20 hours, lowest concentration giving SEAP response at least 2× vehicle control, tested 0.01-30 micromolar
T1 construct: host or cells: HEK293 (HEK-BLUE-hTLR8)
T1 sequence (Q9NR97 27-1041): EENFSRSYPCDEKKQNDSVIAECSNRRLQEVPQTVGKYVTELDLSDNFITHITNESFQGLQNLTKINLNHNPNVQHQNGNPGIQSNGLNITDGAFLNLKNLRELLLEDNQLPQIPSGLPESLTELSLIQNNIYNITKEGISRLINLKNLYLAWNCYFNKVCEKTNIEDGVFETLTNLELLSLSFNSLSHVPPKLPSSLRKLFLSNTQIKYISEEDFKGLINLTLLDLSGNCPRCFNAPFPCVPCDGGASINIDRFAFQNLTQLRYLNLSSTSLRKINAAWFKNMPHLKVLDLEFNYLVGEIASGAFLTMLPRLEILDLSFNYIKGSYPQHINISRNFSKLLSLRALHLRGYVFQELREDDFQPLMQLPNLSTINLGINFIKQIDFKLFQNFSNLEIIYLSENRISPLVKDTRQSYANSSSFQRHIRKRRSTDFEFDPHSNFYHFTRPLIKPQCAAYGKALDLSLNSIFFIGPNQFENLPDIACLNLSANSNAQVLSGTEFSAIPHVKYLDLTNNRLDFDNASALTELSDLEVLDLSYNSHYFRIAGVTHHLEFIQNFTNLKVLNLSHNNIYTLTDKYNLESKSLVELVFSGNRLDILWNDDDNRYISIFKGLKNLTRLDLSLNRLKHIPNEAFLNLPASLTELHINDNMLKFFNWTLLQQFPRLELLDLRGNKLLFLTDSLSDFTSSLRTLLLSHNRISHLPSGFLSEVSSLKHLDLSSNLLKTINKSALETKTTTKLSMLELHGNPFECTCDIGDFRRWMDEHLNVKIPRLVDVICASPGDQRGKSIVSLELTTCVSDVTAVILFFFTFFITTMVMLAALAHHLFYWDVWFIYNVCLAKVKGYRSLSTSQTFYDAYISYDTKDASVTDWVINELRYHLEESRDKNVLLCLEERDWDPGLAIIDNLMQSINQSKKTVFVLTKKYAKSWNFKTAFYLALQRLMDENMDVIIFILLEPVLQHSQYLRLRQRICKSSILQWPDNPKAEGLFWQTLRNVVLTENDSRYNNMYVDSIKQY
Method: (§1) HEK-BLUE-hTLR7 or hTLR8 reporter cells were obtained from InvivoGen, San Diego, CA. According to the manufacturer's description, these reporter cells were prepared by co-transfection of HEK293 cells with an inducible secreted embryonic alkaline phosphatase (SEAP) reporter gene and either the human TLR7 or TLR8 gene. The SEAP reporter gene was placed under the control of an IFN-β minimal promoter fused to five NF-κB and AP-1-binding sites. In the presence of a TLR ligand, activation of NF-κB and AP-1 occurs, resulting in a corresponding increase in SEAP levels.
(§2) In the assay, the HEK cells were grown and maintained using standard cell culture techniques in a growth medium that contained Dulbecco's Modified Eagle Medium (ThermoFisher Scientific Incorporated, Waltham, MA) supplemented with 1% penicillin/streptomycin and 10% heat-inactivated Gibco fetal bovine serum (ThermoFisher Scientific). Each compound was solubilized in DMSO to create a 3 mM stock solution. The stock solution was then further diluted with the growth medium to prepare serial dilutions. Each test compound was tested at a concentration of 30, 10, 3.3, 1.1, 0.37, 0.12, 0.04, and 0.01 micromolar using a 96-well format with 5×10^4 cells and 200 microliters of growth medium per well.
(§3) For each compound, hTLR7, hTLR8, and their respective null control HEK cells were screened. DMSO serially diluted into the growth medium served as the vehicle control. Cell culture supernatants containing the SEAP reporter were collected after an incubation period of 16-20 hours in a cell culture incubator (37° C. and 5% CO2), and either analyzed immediately or stored at −80° C. SEAP levels were measured using the colorimetric enzyme assay (QUANTI-BLUE (InvivoGen) according to manufacturer's instructions.
(§4) Specifically, the minimum effective concentration of each compound (micromolar) was determined as the lowest concentration of the compound that produced a SEAP expression response at least 2× greater than that observed with the vehicle control wells.

[1] = tested on: Human peripheral blood mononuclear cells (PBMC); assay: Cytokine induction in human cells (PBMC), Ella Simple Plex ELISA; settings: 21-24 hours, tested 0.01-30 micromolar; for MEC to Induce Cytokine, IFN-alpha: lowest concentration inducing IFN-alpha at least 2× negative control; for MEC to Induce Cytokine, IFN-gamma: lowest concentration inducing IFN-gamma at least 2× negative control; for MEC to Induce Cytokine, TNF-alpha: lowest concentration inducing TNF-alpha at least 2× negative control
Method: Whole blood was obtained from healthy human donors and collected by venipuncture into vacutainer tubes or syringes containing EDTA. Human peripheral blood mononuclear cells (PBMC) were purified from the whole blood by density gradient centrifugation. Histopaque 1077 (15 mL, Sigma-Aldrich) was transferred to 6×50 mL sterile polypropylene conical tubes. The Histopaque was overlayed with 15-25 mL of blood diluted 1:2 in Hank's Balanced Salts Solution (HBSS) (Gibco, Life Technologies, Grand Island, NY). The tubes were then centrifuged at 1370 rpm for 30 minutes at 20° C., with no brake (400λg, GH 3.8A Rotor).
The interface (buffy coat) containing the PBMC was collected and placed in a new sterile 50 mL conical polypropylene centrifuge tube. The PBMC were mixed with an equal volume of HBSS (about 20 mL from the interface and about 20 mL of HBSS), and then centrifuged at 1090 rpm, 10 minutes, 20° C., with brake (270λg, GH 3.8A Rotor). After completing centrifugation, the cells were resuspended in 2-3 mL ACK Red blood cell lysis buffer (ammonium chloride potassium solution, Gibco, Life Technologies) and incubated for 2-5 minutes at 20° C. Next, HBSS (40 mL) was added to the cells, and the sample was centrifuged at 270×g for 10 minutes at 20° C. The supernatant was decanted, and the cell pellet was resuspended in 5 mL AIM V Medium (Gibco, Life Technologies). Cell aggregates and debris were removed by filtering the cell solution through a BD Falcon 70 micron nylon cell strainer (BD Biosciences, San Jose, CA).
The number of viable cells was determined by counting with a Moxi Z instrument (ORFLO Technologies, Ketchum, ID) or by using a hemacytometer. For determining cell viability with a hemacytometer, the cells were diluted 1/10 in 0.4% trypan blue and HBSS (specifically, 50 microliter of trypan blue+40 microliter of HBSS+10 microliter of cell solution were added to a microfuge tube and mixed). Ten microliters of the diluted cells were then applied to the hemacytometer, and the number of viable PBMC were determined by microscopy.
The PBMC sample was then resuspended in 96-well plates at a concentration of 8×10^5 cells/well in 0.1 mL of AIM-V medium. Each compound was solubilized in DMSO to create a 3 mM stock solution. The stock solution was then further diluted with AIM-V medium to prepare the serial dilutions. The diluted compound (100 microliters) was then transferred to the PBMCs to produce testing sets with final compound concentrations of 30, 10, 3.3, 1.1, 0.37, 0.12, 0.04, 0.01 micromolar. The plates also had both positive and negative controls. The negative control wells contained only AIM-V medium with no example compound. The positive control wells contained a control set of imiquimod serially diluted to concentrations of 30, 10, 3.3, 1.1, 0.37, 0.12, 0.04, 0.01 micromolar. The concentrations used in the control set were selected to match the concentrations used in the testing set. The plates were then cultured at 37° C./5% CO2 for 21-24 hours. Cell-free supernatants were harvested by centrifuging the 96-well plates at 2100 rpm, 23° C. for 10 minutes. Approximately 160 microliters of the supernatant was then stored in a NUNC 96-well plate, covered with the compression cap and stored at −80° C. until the cytokine analysis was done.
Cytokine levels (human IFN-alpha multisubtype, human IFN-gamma, and human TNF-alpha) were measured in picograms/mL by Ella Simple Plex ELISA (ProteinSimple, San Jose, CA) according to the manufacturer's instructions.
Specifically, the minimum effective concentration of each compound (micromolar) was determined as the lowest concentration of the compound that induced a measured cytokine response at a level ([…]) that was at least 2× greater than that observed with the negative control wells.

human TLR7 = target: T2, human TLR7 (Homo sapiens, UniProt Q9NYK1); assay: TLR activation and specificity, HEK-BLUE-hTLR7 SEAP reporter cells; settings: 16-20 hours, lowest concentration giving SEAP response at least 2× vehicle control, tested 0.01-30 micromolar
T2 construct: host or cells: HEK293 (HEK-BLUE-hTLR7)
T2 sequence (Q9NYK1 27-1049): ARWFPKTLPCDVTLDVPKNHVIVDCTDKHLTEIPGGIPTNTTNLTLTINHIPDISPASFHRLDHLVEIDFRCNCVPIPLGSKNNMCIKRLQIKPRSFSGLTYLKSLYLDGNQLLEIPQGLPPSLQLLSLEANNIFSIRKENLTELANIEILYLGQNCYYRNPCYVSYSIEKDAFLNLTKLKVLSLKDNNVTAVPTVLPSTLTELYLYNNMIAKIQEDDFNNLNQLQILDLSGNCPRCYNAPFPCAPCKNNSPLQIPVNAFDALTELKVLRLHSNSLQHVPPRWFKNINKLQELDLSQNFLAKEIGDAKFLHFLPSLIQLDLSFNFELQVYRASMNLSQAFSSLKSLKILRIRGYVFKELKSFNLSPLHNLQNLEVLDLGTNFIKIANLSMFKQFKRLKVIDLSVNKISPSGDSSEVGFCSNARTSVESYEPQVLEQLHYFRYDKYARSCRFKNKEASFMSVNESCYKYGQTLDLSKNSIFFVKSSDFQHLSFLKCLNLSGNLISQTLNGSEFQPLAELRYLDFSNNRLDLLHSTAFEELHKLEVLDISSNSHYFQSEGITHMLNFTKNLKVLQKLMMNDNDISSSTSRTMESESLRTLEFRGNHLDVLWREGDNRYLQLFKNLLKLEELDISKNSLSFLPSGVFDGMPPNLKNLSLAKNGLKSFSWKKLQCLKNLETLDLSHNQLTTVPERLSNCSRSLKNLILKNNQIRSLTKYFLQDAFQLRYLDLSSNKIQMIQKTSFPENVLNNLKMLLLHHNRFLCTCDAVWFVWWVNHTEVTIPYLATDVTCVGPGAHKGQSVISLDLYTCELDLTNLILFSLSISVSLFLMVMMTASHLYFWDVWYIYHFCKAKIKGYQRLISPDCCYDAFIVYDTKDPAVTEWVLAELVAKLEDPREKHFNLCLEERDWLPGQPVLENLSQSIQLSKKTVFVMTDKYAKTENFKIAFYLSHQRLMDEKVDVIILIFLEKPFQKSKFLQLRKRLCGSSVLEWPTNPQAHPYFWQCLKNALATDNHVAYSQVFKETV
Method: as §1, §2, §3, §4

SMILES | MEC to Produce TLR Activation, TLR 8 (human TLR8) [µM] | MEC to Induce Cytokine, IFN-alpha [1] [µM] | MEC to Induce Cytokine, IFN-gamma [1] [µM] | MEC to Induce Cytokine, TNF-alpha [1] [µM] | MEC to Produce TLR Activation, TLR 7 (human TLR7) [µM]
CCOC[C@H](Cc1ccc(OCCN=[N+]=[N-])cc1)n1cnc2c(N)nc3ccccc3c21 [Example 1, (S)-1-(1-(4-(2-azidoethoxy)phenyl)-3-ethoxypropan-2-yl)-1H-imidazo[4,5-c]quinolin-4-amine] | 10 | ≤0.01 | ≤0.01 | ≤0.01 | ≤0.01
CCOC[C@H](Cc1ccc(OCCn2cc(-c3ccccc3)nn2)cc1)n1cnc2c(N)nc3ccccc3c21 [Example 2, (S)-1-(1-ethoxy-3-(4-(2-(4-phenyl-1H-1,2,3-triazol-1-yl)ethoxy)phenyl)propan-2-yl)-1H-imidazo[4,5-c]quinolin-4-amine] | 3.3 | ≤0.01 | ≤0.01 | ≤0.01 | ≤0.01
CCOC[C@H](Cc1ccc(OCCCCCCCCCCCN=[N+]=[N-])cc1)n1cnc2c(N)nc3ccccc3c21 [Example 3, (S)-1-(1-(4-((11-azidoundecyl)oxy)phenyl)-3-ethoxypropan-2-yl)-1H-imidazo[4,5-c]quinolin-4-amine] | >30 | 3.3 | >30 | 1.1 | 1.1
CCOC[C@H](Cc1ccc(OCCCCCCCCCCCn2cc(-c3ccccc3)nn2)cc1)n1cnc2c(N)nc3ccccc3c21 [Example 4, (S)-1-(1-ethoxy-3-(4-((11-(4-phenyl-1H-1,2,3-triazol-1-yl)undecyl)oxy)phenyl)propan-2-yl)-1H-imidazo[4,5-c]quinolin-4-amine] | 3.3 | 3.3 | 10 | 3.3 | 3.3
